Results as given in ChEMBL document CHEMBL4265922, “Synthesis and antiproliferative activity of 6,7-disubstituted-4-phenoxyquinoline derivatives bearing the 1,8-naphthyridin-2-one moiety” (Eur J Med Chem, 2018).

Experiments:
[1] = target: Hepatocyte growth factor receptor (Homo sapiens, UniProt P08581); assay: Inhibition of c-MET (unknown origin) using FAM-labeled peptide as substrate incubated for 10 mins followed by substrate addition by HTRF assay
HepG2 [2] = assay: cells; details: Homo sapiens, HepG2, 72 h
MCF7 = assay: cells; details: Homo sapiens, MCF7, 72 h
A549 = assay: cells; details: Homo sapiens, A549, 72 h
Description: Antiproliferative activity against human A549 cells after 72 hrs by MTT assay

[3] = target: Platelet-derived growth factor receptor alpha (Homo sapiens, UniProt P16234); assay: Inhibition of PDGFRalpha (unknown origin) using FAM-labeled peptide as substrate incubated for 10 mins followed by substrate addition by HTRF assay
[4] = target: T1, Receptor-type tyrosine-protein kinase FLT3 (Homo sapiens, UniProt P36888); assay: Inhibition of FLT3 (unknown origin) using FAM-labeled peptide as substrate incubated for 10 mins followed by substrate addition by HTRF assay
T1 sequence (P36888 whole entry): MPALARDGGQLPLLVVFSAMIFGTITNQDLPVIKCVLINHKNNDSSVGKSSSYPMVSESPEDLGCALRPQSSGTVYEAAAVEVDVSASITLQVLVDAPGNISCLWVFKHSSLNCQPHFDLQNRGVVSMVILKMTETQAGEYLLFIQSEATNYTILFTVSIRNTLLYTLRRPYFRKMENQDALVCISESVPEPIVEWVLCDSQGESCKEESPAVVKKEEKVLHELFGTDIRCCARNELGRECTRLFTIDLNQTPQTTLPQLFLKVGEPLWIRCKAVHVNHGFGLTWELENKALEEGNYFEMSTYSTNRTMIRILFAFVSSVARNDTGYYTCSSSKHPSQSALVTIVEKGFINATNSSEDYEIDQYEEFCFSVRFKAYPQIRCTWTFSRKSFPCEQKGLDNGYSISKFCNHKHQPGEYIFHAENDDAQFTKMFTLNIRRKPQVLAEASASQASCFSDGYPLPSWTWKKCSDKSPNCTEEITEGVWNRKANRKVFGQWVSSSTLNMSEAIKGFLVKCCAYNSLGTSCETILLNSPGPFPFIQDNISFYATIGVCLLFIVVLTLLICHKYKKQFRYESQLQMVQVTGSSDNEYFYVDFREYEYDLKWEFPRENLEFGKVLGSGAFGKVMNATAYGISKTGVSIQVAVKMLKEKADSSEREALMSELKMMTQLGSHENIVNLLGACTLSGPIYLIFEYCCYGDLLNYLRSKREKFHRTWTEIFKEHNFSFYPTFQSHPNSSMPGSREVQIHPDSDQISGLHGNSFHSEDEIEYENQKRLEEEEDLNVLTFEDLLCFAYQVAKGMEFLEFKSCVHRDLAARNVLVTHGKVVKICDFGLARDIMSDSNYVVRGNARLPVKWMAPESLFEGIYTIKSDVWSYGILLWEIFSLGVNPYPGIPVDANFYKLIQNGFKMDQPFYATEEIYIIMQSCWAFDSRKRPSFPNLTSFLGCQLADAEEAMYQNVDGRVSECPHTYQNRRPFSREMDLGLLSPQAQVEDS

[5] = target: Mast/stem cell growth factor receptor Kit (Homo sapiens, UniProt P10721); assay: Inhibition of c-KIT (unknown origin) using FAM-labeled peptide as substrate incubated for 10 mins followed by substrate addition by HTRF assay
[6] = target: Platelet-derived growth factor receptor beta (Homo sapiens, UniProt P09619); assay: Inhibition of PDGFRbeta (unknown origin) using FAM-labeled peptide as substrate incubated for 10 mins followed by substrate addition by HTRF assay
[7] = target: Vascular endothelial growth factor receptor 3 (Homo sapiens, UniProt P35916); assay: Inhibition of FLT4 (unknown origin) using FAM-labeled peptide as substrate incubated for 10 mins followed by substrate addition by HTRF assay
[8] = target: ALK tyrosine kinase receptor (Homo sapiens, UniProt Q9UM73); assay: Inhibition of ALK (unknown origin) using FAM-labeled peptide as substrate incubated for 10 mins followed by substrate addition by HTRF assay
[9] = target: Epidermal growth factor receptor (Homo sapiens, UniProt P00533); assay: Inhibition of EGFR (unknown origin) using FAM-labeled peptide as substrate incubated for 10 mins followed by substrate addition by HTRF assay
HepG2 [10] = assay: Induction of apoptosis in human HepG2 cells assessed as viable cells at 0.5 uM after 48 hrs by Annexin V-FITC/PI staining based flow cytometry (reference value: 91.69%); assay type: functional; details: HepG2, 48 h, read-out: Activity
HepG2 [11] = assay: Induction of apoptosis in human HepG2 cells assessed as early apoptotic cells at 0.5 uM after 48 hrs by Annexin V-FITC/PI staining based flow cytometry (reference value: 2.97%); assay type: functional
HepG2 [12] = assay: Induction of apoptosis in human HepG2 cells assessed as late apoptotic cells at 0.5 uM after 48 hrs by Annexin V-FITC/PI staining based flow cytometry (reference value: 3.53%); assay type: functional
HepG2 [13] = assay: Induction of apoptosis in human HepG2 cells assessed as necrotic cells at 0.5 uM after 48 hrs by Annexin V-FITC/PI staining based flow cytometry (reference value: 1.81%); assay type: functional

Hepatocyte growth factor receptor, sequence (P08581 whole entry): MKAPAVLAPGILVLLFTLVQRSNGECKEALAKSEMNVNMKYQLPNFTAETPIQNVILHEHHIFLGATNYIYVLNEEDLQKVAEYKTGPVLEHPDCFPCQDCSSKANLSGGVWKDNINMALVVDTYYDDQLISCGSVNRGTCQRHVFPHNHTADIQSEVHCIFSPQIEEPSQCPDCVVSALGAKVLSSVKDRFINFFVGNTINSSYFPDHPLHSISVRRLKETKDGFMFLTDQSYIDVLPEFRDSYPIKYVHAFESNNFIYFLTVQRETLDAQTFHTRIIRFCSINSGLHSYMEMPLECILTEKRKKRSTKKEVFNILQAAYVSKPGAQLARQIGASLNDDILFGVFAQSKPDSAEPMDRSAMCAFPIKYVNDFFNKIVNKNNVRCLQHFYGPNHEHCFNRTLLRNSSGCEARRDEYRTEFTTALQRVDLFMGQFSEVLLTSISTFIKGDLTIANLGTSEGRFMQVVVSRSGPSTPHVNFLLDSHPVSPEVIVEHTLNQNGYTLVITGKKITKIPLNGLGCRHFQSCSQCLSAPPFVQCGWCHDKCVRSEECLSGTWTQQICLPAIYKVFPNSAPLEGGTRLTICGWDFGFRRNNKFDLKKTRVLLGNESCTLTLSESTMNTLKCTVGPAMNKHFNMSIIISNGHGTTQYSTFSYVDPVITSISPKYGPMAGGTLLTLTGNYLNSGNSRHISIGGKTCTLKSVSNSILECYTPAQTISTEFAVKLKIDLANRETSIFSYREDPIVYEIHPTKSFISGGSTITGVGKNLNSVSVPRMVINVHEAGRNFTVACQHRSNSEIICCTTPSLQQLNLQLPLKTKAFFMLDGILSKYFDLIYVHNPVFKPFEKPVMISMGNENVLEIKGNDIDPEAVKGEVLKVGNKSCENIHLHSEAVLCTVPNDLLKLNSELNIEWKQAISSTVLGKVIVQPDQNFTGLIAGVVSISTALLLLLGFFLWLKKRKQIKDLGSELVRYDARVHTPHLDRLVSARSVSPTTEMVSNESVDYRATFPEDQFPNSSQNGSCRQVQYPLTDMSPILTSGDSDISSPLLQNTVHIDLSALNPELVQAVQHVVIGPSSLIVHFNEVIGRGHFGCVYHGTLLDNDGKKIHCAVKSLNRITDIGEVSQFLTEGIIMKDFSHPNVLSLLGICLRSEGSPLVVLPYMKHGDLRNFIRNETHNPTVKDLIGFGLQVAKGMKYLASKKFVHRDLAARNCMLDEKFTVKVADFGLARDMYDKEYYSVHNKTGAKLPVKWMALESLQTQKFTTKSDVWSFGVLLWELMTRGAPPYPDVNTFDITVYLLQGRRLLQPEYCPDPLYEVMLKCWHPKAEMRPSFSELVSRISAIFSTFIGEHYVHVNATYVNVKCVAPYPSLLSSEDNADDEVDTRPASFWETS
Platelet-derived growth factor receptor beta, sequence (P09619 whole entry): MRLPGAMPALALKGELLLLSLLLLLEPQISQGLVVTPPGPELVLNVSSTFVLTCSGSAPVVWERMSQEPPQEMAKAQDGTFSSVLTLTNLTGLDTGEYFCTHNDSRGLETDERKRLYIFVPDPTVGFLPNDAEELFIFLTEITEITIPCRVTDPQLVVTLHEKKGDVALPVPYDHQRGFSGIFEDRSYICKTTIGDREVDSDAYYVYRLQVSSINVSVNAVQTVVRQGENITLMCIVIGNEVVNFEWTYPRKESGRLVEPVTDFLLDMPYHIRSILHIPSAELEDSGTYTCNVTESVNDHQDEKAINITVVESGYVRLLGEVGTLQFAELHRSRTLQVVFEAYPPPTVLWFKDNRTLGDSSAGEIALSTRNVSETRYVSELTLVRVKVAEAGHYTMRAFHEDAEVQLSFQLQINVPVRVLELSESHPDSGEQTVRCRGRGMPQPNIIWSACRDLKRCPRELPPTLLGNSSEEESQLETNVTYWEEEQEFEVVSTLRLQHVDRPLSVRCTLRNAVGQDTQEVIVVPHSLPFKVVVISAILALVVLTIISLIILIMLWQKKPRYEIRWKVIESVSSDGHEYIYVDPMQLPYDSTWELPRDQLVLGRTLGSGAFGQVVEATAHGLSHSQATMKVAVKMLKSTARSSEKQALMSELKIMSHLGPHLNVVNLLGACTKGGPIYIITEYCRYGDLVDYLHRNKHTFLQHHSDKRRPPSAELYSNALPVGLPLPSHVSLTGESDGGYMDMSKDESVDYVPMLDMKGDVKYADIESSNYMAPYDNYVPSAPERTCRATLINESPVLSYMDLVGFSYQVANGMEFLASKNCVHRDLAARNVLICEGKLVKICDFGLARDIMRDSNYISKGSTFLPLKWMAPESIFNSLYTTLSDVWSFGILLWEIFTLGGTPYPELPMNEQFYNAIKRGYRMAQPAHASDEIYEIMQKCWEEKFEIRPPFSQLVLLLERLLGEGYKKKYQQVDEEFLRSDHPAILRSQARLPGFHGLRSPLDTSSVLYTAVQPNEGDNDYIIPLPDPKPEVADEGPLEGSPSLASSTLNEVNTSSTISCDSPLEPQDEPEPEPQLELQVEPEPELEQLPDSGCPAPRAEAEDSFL
ALK tyrosine kinase receptor, sequence (Q9UM73 whole entry): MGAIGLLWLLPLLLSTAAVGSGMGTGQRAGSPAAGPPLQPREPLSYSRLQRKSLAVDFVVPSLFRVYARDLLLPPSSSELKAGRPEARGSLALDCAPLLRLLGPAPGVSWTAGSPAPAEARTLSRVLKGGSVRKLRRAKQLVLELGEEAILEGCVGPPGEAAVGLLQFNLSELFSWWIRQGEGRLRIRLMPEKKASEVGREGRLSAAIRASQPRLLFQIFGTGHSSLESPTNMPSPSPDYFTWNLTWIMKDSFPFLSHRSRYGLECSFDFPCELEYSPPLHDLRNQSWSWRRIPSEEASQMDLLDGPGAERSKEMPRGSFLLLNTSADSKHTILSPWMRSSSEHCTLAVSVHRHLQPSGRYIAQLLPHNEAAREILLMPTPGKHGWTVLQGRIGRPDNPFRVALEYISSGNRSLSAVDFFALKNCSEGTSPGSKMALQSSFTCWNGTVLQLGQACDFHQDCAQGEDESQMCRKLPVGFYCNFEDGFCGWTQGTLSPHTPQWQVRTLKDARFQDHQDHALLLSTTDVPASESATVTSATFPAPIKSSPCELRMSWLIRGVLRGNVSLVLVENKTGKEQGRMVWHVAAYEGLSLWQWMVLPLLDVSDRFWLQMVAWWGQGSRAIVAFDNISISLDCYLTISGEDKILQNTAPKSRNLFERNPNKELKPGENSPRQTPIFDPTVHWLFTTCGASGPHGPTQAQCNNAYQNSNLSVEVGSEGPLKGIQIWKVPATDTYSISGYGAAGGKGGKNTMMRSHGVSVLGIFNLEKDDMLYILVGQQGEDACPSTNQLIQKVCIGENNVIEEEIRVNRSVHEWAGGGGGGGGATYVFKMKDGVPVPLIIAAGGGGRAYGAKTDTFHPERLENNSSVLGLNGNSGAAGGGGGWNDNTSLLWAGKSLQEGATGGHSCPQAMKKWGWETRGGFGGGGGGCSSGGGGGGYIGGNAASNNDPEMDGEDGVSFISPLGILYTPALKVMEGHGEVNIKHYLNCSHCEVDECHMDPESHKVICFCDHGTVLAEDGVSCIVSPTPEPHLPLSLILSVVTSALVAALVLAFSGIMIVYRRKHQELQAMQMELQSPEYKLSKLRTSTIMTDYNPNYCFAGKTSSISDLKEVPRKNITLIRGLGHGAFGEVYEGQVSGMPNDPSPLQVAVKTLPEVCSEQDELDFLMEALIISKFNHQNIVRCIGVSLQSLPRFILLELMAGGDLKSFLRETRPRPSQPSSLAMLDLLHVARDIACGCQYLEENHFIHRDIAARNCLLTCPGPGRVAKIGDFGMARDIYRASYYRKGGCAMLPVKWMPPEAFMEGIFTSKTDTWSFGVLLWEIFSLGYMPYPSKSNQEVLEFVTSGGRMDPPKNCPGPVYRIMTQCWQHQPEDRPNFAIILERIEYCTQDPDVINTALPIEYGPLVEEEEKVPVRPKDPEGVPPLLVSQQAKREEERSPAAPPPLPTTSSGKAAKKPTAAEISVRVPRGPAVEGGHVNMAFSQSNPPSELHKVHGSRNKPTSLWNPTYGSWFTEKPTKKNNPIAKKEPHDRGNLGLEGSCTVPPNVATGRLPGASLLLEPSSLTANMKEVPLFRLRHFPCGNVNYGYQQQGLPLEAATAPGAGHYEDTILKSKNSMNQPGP
Mast/stem cell growth factor receptor Kit, sequence (P10721 whole entry): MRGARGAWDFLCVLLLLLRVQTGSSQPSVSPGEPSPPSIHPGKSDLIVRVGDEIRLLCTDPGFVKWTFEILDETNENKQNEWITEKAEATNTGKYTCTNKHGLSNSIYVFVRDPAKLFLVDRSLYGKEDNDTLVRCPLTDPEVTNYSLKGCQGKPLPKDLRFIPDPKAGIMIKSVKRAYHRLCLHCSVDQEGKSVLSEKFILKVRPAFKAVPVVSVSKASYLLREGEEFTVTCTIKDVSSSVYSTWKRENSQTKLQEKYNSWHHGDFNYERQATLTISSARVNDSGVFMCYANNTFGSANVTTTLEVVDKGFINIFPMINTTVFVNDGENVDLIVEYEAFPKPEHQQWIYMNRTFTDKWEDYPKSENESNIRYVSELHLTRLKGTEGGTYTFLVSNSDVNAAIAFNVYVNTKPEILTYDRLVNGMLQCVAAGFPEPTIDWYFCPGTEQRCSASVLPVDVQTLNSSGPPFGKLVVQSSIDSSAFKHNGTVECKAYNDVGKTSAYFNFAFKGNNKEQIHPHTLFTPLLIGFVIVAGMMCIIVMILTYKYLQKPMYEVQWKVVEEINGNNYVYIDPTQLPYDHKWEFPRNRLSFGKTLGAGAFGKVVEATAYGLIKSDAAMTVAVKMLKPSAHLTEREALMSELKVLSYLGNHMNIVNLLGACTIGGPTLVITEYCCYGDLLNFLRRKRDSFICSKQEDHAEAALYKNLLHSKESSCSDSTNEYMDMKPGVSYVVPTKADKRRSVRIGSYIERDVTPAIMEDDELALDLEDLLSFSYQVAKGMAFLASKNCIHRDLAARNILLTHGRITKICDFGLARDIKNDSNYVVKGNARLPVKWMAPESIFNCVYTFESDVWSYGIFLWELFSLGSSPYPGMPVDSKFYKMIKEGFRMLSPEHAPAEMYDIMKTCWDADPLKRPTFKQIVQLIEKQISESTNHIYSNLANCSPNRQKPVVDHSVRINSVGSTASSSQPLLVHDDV

Row | IC50 [1] [nM] | IC50 (HepG2 [2]) [nM] | IC50 (MCF7) [nM] | IC50 (A549) [nM] | Compound | other results
1 | 2.86 | – | – | – | COc1cc2c(Oc3ccc(NC(=O)c4cc5cccnc5n(-c5ccc(F)cc5)c4=O)cc3F)ccnc2cc1OCCCN1CCCCC1 | –
2 | – | > 40000 | 3210 | 4230 | COc1cc2c(Oc3ccc(NC(=O)c4cc5cccnc5n(-c5ccc(Cl)cc5)c4=O)cc3F)ccnc2cc1OCCCN1CCOCC1 | –
3 | – | 11600 | > 40000 | 16800 | COc1cc2c(Oc3ccc(NC(=O)c4cc5cccnc5n(-c5ccccc5)c4=O)cc3F)ccnc2cc1OCCCN1CCOCC1 | –
4 | – | 9160 | 10500 | 19500 | COc1ccc(-n2c(=O)c(C(=O)Nc3ccc(Oc4ccnc5cc(OCCCN6CCOCC6)c(OC)cc45)c(F)c3)cc3cccnc32)cc1 | –
5 | 10.1 | 1980 | 610 | 4170 | COc1cc2c(Oc3ccc(NC(=O)c4cc5cccnc5n(-c5ccc(Br)cc5)c4=O)cc3F)ccnc2cc1OCCCN1CCOCC1 | –
6 | – | 9680 | 1120 | > 40000 | COc1cc2c(Oc3ccc(NC(=O)c4cc5cccnc5n(-c5ccc(F)c(Cl)c5)c4=O)cc3F)ccnc2cc1OCCCN1CCOCC1 | –
7 | 31.8 | – | – | – | COc1cc2c(Oc3ccc(NC(=O)c4cc5cccnc5n(-c5ccc(F)cc5)c4=O)cc3F)ccnc2cc1OCCCN1CCC(C)CC1 | –
8 | 2.36 | – | – | – | COc1cc2c(Oc3ccc(NC(=O)c4cc5cccnc5n(-c5ccc(F)cc5)c4=O)cc3F)ccnc2cc1OCCCN1CCN(C)CC1 | IC50 [3]: 4.35 nM; IC50 [4]: 5.31 nM; IC50 [5]: 10.1 nM; IC50 [6]: 19.5 nM; IC50 [7]: 183 nM; IC50 [8]: 200 nM; IC50 [9]: > 10000 nM
9 | 29.2 | – | – | – | COc1cc2c(Oc3ccc(NC(=O)c4cc5cccnc5n(-c5ccc(Br)cc5)c4=O)cc3F)ccnc2cc1OCCCN1CCCCC1 | –
10 | 38.3 | – | – | – | COc1cc2c(Oc3ccc(NC(=O)c4cc5cccnc5n(-c5ccc(Br)cc5F)c4=O)cc3F)ccnc2cc1OCCCN1CCC(C)CC1 | –
11 | – | 4170 | 9410 | 4190 | COc1cc2c(Oc3ccc(NC(=O)c4cc5cccnc5n(-c5ccc(C(F)(F)F)cc5Cl)c4=O)cc3F)ccnc2cc1OCCCN1CCOCC1 | –
12 | – | > 40000 | 9750 | > 40000 | COc1cc2c(Oc3ccc(NC(=O)c4cc5cccnc5n(-c5ccc(Br)cc5F)c4=O)cc3F)ccnc2cc1OCCCN1CCOCC1 | –
13 | 7.97 | 760 | 1780 | 2410 | COc1cc2c(Oc3ccc(NC(=O)c4cc5cccnc5n(-c5ccc(F)cc5)c4=O)cc3F)ccnc2cc1OCCCN1CCOCC1 | –
14 | – | – | – | – | COc1cc2c(Oc3ccc(NC(=O)C4(C(=O)Nc5ccc(F)cc5)CC4)cc3F)ccnc2cc1OCCCN1CCOCC1 [FORETINIB] | viability at 0.5 µM (HepG2 [10]): 72.5%; Activity (HepG2 [11]): 18.51%; Activity (HepG2 [12]): 8.36%; Activity (HepG2 [13]): 0.64%
15 | 6.41 | – | – | – | COc1cc2c(Oc3ccc(NC(=O)c4cc5cccnc5n(-c5ccc(Br)cc5F)c4=O)cc3F)ccnc2cc1OCCCN1CCN(C)CC1 | –
